Laboratory results from patent US20130035329A1, “THERAPEUTICALLY ACTIVE COMPOSITIONS AND THEIR METHODS OF USE” (priority 2009, published 2013).

Target: IDH1 R132H (Homo sapiens, UniProt O75874, R132H)
Assay: High Throughput Screening (HTS) for IDH1 R132H inhibitors (resazurin/NADPH fluorescence assay)
Type: biochemical
Conditions: IDH1m; assay similar to Example 1; class symbols
Procedure: A compound described herein may be an inhibitor of IDH1m. […] B refers to an inhibitor of IDH1m with an IC50 between 1 μM and 50 μM. C refers to an inhibitor of IDH1m with an IC50 greater than 50 μM. D refers to a compound wherein an IC50 is not available.
Assays were conducted in a volume of 76 μl assay buffer (150 mM NaCl, 10 mM MgCl2, 20 mM Tris pH 7.5, 0.03% bovine serum albumin) as follows in a standard 384-well plate: To 25 ul of substrate mix (8 uM NADPH, 2 mM aKG), 1 μl of test compound was added in DMSO. The plate was centrifuged briefly, and then 25 μl of enzyme mix was added (0.2 μg/ml ICDH1 R132H) followed by a brief centrifugation and shake at 100 RPM. The reaction was incubated for 50 minutes at room temperature, then 25 μl of detection mix (30 μM resazurin, […]) was added and the mixture further incubated for 5 minutes at room temperature. The conversion of resazurin to resorufine was detected by fluorescent spectroscopy at Ex544 Em590 c/o 590.

Chain of IDH1 R132H (O75874 whole entry R132H): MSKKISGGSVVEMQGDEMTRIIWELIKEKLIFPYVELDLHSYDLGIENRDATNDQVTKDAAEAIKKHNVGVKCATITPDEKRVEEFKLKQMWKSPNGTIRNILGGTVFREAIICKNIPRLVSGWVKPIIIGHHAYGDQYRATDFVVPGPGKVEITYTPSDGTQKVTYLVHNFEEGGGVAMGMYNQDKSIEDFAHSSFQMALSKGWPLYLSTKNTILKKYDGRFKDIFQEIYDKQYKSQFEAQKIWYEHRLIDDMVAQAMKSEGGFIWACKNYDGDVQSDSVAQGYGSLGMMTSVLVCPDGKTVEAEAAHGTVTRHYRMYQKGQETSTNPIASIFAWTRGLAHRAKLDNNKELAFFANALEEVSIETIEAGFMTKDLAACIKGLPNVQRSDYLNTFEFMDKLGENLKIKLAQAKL

Compound | IC50 [µM]
COc1ccccc1N1CCN(C(=O)c2cccc(S(=O)(=O)Nc3ccc(C(C)(C)C)cc3)c2)CC1 | 1 to 50
CCCCc1ccc(NS(=O)(=O)c2ccc(C)c(C(=O)N3CCN(c4ccccc4)CC3)c2)cc1 | 1 to 50
COc1ccccc1N1CCN(C(=O)c2cc(S(=O)(=O)Nc3ccc(C(C)(C)C)cc3)ccc2C)CC1 | 1 to 50
CCOc1ccc(NS(=O)(=O)c2ccc(C)c(C(=O)N3CCN(c4ccccc4OC)CC3)c2)cc1 | 1 to 50
CCCCc1ccc(NS(=O)(=O)c2cccc(C(=O)N3CCN(c4ccnc5[nH]ccc45)CC3)c2)cc1 | 1 to 50
CCCCc1ccc(NS(=O)(=O)c2ccc(C)c(C(=O)N3CCN(c4ccccc4F)CC3)c2)cc1 | 1 to 50
CCCCc1ccc(NS(=O)(=O)c2ccc(C)c(C(=O)N3CCN(c4ccccc4C)CC3)c2)cc1 | < 1
CCCCc1ccc(NS(=O)(=O)c2ccc(C)c(C(=O)N3CCN(C(=O)c4ccccc4)CC3)c2)cc1 | 1 to 50
CCCCc1ccc(NS(=O)(=O)c2ccc(C)c(C(=O)N3CCN(C(=O)Cc4ccccc4)CC3)c2)cc1 | 1 to 50
CCCCc1ccc(NS(=O)(=O)c2ccc(C)c(C(=O)N3CCN(CC(C)c4ccccc4)CC3)c2)cc1 (stereo not drawn) | 1 to 50
CCCCc1ccc(NS(=O)(=O)c2ccc(C)c(C(=O)N3CCN(Cc4ccccc4CC)CC3)c2)cc1 | 1 to 50
CCCCc1ccc(NS(=O)(=O)c2ccc(C)c(C(=O)N3CCN(CCc4ccccc4)CC3)c2)cc1 | 1 to 50
CCCCc1ccc(NS(=O)(=O)c2ccc(C)c(C(=O)N3CCN(C(C)c4ccccc4)CC3)c2)cc1 (stereo not drawn) | 1 to 50
CCCCc1ccc(NS(=O)(=O)c2ccc(C)c(C(=O)N3CCN(C(=O)OCc4ccccc4)CC3)c2)cc1 | 1 to 50
CCCCc1ccc(NS(=O)(=O)c2ccc(C)c(C(=O)N3CCN(C(=O)Oc4ccccc4)CC3)c2)cc1 | 1 to 50
CCCCc1ccc(NS(=O)(=O)c2ccc(C)c(C(=O)N3CCN(C(=O)OCC(C)C)CC3)c2)cc1 | 1 to 50
CCCCc1ccc(NS(=O)(=O)c2ccc(C)c(C(=O)N3CCN(C(=O)OC(C)C)CC3)c2)cc1 | 1 to 50
CCCCc1ccc(NS(=O)(=O)c2ccc(C)c(C(=O)N3CCN(c4ccccc4CC)CC3)c2)cc1 | < 1
CCCCc1ccc(NS(=O)(=O)c2ccc(C)c(C(=O)N3CCN(c4ccc(Cl)cc4)CC3)c2)cc1 | 1 to 50
CCCCc1ccc(NS(=O)(=O)c2ccc(C)c(C(=O)N3CCN(c4ccc(OCCC)cc4)CC3)c2)cc1 | 1 to 50
CCCCc1ccc(NS(=O)(=O)c2ccc(C)c(C(=O)N3CCCN(c4ccccc4F)CC3)c2)cc1 | 1 to 50
CCCCc1ccc(NS(=O)(=O)c2ccc(C)c(C(=O)N3CCCN(c4ccccc4C)CC3)c2)cc1 | 1 to 50
CCCCc1ccc(NS(=O)(=O)c2ccc(C)c(C(=O)N3CCN(c4ccccc4OCC)CC3)c2)cc1 | 1 to 50
COc1ccccc1N1CCN(C(=O)c2cc(S(=O)(=O)Nc3ccc(OCc4nnco4)cc3)ccc2C)CC1 | 1 to 50
CCCCc1ccc(NS(=O)(=O)c2ccc(C)c(C(=O)N3CCN(c4ccccc4OC(C)C)CC3)c2)cc1 | 1 to 50
CCCCc1ccc(NS(=O)(=O)c2ccc(C)c(C(=O)N3CCN(c4ccccc4OCC4CC4)CC3)c2)cc1 | 1 to 50
CCCCc1ccc(NS(=O)(=O)c2ccc(C)c(C(=O)N3CCN(c4ccccc4OCCC)CC3)c2)cc1 | 1 to 50
CCCCc1ccc(NS(=O)(=O)c2ccc(C)c(C(=O)N3CCN(c4cccc(Cl)c4)CC3)c2)cc1 | 1 to 50

Compound | IC50 [µM]
CCCCc1ccc(NS(=O)(=O)c2ccc(C)c(C(=O)N3CCN(c4ccc(OC)cc4OC)CC3)c2)cc1 | 1 to 50
CCCCc1ccc(NS(=O)(=O)c2ccc(C)c(C(=O)N3CCN(c4ccc(OC)cc4O)CC3)c2)cc1 | 1 to 50
CCCCc1ccc(NS(=O)(=O)c2ccc(C)c(C(=O)N3CCN(c4ccc(F)c(OC)c4)CC3)c2)cc1 | 1 to 50
CCCCc1ccc(NS(=O)(=O)c2ccc(C)c(C(=O)N3CCN(c4ccccc4Br)CC3)c2)cc1 | 1 to 50
COc1ccccc1N1CCN(C(=O)c2cc(S(=O)(=O)Nc3ccc4[nH]ccc4c3)ccc2C)CC1 | 1 to 50
CCCCc1ccc(NS(=O)(=O)c2ccc(C)c(C(=O)N3CCN(c4ccccc4C(F)(F)F)CC3)c2)cc1 | 1 to 50
COCOc1ccc(NS(=O)(=O)c2ccc(C)c(C(=O)N3CCN(c4ccccc4OC)CC3)c2)cc1 | 1 to 50
COCCOCOc1ccc(NS(=O)(=O)c2ccc(C)c(C(=O)N3CCN(c4ccccc4OC)CC3)c2)cc1 | 1 to 50
CCCCOc1ccc(NS(=O)(=O)c2ccc(C)c(C(=O)N3CCN(c4ccccc4OC)CC3)c2)c(C)c1C | 1 to 50
CCCCc1ccc(NS(=O)(=O)c2cc3c(c(C(=O)N4CCN(c5ccccc5OC)CC4)c2)OCCO3)cc1 | 1 to 50
COc1ccccc1NS(=O)(=O)c1cccc(C(=O)N2CCN(c3ccccc3)CC2)c1 | > 50
COc1ccccc1NS(=O)(=O)c1cccc(C(=O)N2CCN(c3ccccc3OC)CC2)c1 | > 50
COc1ccccc1N1CCCN(C(=O)c2cccc(S(=O)(=O)Nc3ccc(Cl)cc3)c2)CC1 | > 50
Cc1ccc(NS(=O)(=O)c2cccc(C(=O)N3CCN(c4ccccc4)CC3)c2)cc1 | > 50
O=C(c1cccc(S(=O)(=O)Nc2ccccc2F)c1)N1CCN(c2ccccn2)CC1 | > 50
COc1ccccc1N1CCCN(C(=O)c2cccc(S(=O)(=O)Nc3ccccc3F)c2)CC1 | 1 to 50
COc1ccccc1N1CCN(C(=O)c2cc(S(=O)(=O)Nc3ccccc3)ccc2C)CC1 | > 50
COc1ccc(NS(=O)(=O)c2cccc(C(=O)N3CCCN(c4ccccc4OC)CC3)c2)cc1 | > 50
Cc1cc(F)ccc1NS(=O)(=O)c1cccc(C(=O)N2CCN(c3ccccc3)CC2)c1 | > 50
Cc1ccc(S(=O)(=O)Nc2ccccc2F)cc1C(=O)N1CCN(c2ccccn2)CC1 | > 50
COc1ccccc1N1CCCN(C(=O)c2cccc(S(=O)(=O)Nc3ccc(C)cc3)c2)CC1 | > 50
COc1ccccc1N1CCN(C(=O)c2cc(S(=O)(=O)Nc3ccccc3F)ccc2C)CC1 | > 50
COc1ccc(NS(=O)(=O)c2ccc(C)c(C(=O)N3CCN(c4ccccn4)CC3)c2)cc1 | > 50
CCCCc1ccc(NS(=O)(=O)c2ccc(Cl)c(C(=O)N3CCN(C(C)=O)CC3)c2)cc1 | > 50
COc1ccccc1N1CCN(C(=O)c2cc(S(=O)(=O)Nc3ccc(CCN4CCCC4)cc3)ccc2C)CC1 | > 50
CCCCc1ccc(C(=O)Nc2cccc(C(=O)N3CCN(c4ccccc4OC)CC3)c2)cc1 | 1 to 50
CCCCc1ccc(OC(=O)Nc2cccc(C(=O)N3CCN(c4ccccc4OC)CC3)c2)cc1 | > 50

Same assay, conditions: IDH1m; number printed in Table 1 instead of a class symbol

Compound | IC50 [µM]
COc1ccc(NS(=O)(=O)c2ccc(C)c(C(=O)N3CCN(c4ccccc4)CC3)c2)cc1 | 51

Tested on: recurrent glioma
Assay: not given
Conditions: recurrent glioma patients; bevacizumab used with irinotecan; cited from earlier work

Compound | 6-month survival [%]
bevacizumab: "The anti-angiogenic agent bevacizumab"; listed among "exemplary antibodies" | 46
